From publication PMC11055700 (Chemicke Zvesti, 2024)
Read-outs that look alike come from different tables or passages of the source.

Assays:
[1] = target: T1, SARS-CoV-2 Spike-RBD (omicron) / ACE2 (Homo sapiens, UniProt Q9BYF1); experiment: biochemical; type: binding
T1 construct: a SARS-CoV-2 RBD protein containing a C-terminal His tag; a full-length ACE2 peptide with a C-terminal Fc tag; purchased Sino Biological

[2] = target: T2, SARS-CoV-2 Spike-RBD (lambda) / ACE2 (Homo sapiens, UniProt Q9BYF1); experiment: biochemical; type: binding
T2 construct: a SARS-CoV-2 RBD protein containing a C-terminal His tag; a full-length ACE2 peptide with a C-terminal Fc tag; purchased Sino Biological
T2 sequence (Q9BYF1 18-740): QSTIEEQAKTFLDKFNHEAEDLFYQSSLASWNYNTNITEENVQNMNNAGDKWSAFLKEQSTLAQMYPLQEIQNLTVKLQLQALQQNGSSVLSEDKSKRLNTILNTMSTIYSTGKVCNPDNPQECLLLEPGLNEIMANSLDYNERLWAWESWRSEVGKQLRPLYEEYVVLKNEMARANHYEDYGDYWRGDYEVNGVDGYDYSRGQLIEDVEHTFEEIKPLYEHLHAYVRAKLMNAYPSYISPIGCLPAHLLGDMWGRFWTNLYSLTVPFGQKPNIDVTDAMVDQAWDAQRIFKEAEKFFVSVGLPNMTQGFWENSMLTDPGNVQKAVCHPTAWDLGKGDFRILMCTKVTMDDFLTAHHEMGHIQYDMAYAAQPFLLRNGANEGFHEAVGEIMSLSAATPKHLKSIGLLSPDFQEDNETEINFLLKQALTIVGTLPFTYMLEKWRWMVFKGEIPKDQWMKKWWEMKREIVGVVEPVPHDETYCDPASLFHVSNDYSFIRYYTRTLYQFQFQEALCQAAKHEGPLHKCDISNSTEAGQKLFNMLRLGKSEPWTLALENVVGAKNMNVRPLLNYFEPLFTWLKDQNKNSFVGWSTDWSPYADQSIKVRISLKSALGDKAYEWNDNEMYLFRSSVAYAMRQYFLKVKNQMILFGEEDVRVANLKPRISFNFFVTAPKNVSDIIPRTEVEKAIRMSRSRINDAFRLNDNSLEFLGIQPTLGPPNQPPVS

[3] = target: T3, human PD-1 / human PD-L1 (Homo sapiens, UniProt Q15116+Q9NZQ7); experiment: AlphaScreen PD-1-PD-L1 binding assay; conditions: unrelated ligand-receptor pair
T3 construct: purchased Sino Biological
T3 sequence (Q15116 25-167 limits assumed): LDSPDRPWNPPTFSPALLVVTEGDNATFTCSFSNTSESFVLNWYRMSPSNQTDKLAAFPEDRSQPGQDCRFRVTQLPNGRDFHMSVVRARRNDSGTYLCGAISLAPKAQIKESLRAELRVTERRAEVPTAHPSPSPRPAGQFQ
T3 sequence (Q9NZQ7 19-239 limits assumed): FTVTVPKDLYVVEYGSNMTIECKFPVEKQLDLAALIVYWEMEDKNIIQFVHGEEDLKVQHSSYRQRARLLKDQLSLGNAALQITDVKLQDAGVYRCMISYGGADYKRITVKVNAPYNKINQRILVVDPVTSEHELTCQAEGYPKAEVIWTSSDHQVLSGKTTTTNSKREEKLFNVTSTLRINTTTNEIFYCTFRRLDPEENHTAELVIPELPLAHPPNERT

[4] = target: T4, SARS-CoV-2 Spike-RBD (delta) / ACE2 (Homo sapiens, UniProt Q9BYF1); experiment: biochemical; type: binding
T4 construct: a SARS-CoV-2 RBD protein containing a C-terminal His tag; a full-length ACE2 peptide with a C-terminal Fc tag; purchased Sino Biological
T4 sequence (Q9BYF1 18-740): as the sequence (Q9BYF1 18-740) above

[5] = target: T5, SARS-CoV-2 Spike-RBD (ancestral, WT) / ACE2 (Homo sapiens, UniProt Q9BYF1); experiment: biochemical; type: binding; conditions: IC50 Spike/ACE2
T5 construct: a SARS-CoV-2 RBD protein containing a C-terminal His tag; a full-length ACE2 peptide with a C-terminal Fc tag; purchased Sino Biological
T5 sequence (Q9BYF1 18-740): as above

[6] = target: T6, SARS-CoV-2 Spike-RBD (beta) / ACE2 (Homo sapiens, UniProt Q9BYF1); experiment: biochemical; type: binding
T6 construct: a SARS-CoV-2 RBD protein containing a C-terminal His tag; a full-length ACE2 peptide with a C-terminal Fc tag; purchased Sino Biological
T6 sequence (Q9BYF1 18-740): as above

T1 sequence (Q9BYF1 18-740, change not shown): as the sequence (Q9BYF1 18-740) above

Which melting point does the source give for `O=C1Nc2ccc(Cl)cc2C1=NNc1ccc([N+](=O)[O-])cc1[N+](=O)[O-]` [H2L, 5-chloro-3-(2-(2,4-dinitrophenyl)hydrazono)indolin-2-one] here?
The melting point was over 350 °C.

What about the IC50 [1] of the same molecule?
The IC50 was 615 nM.

What about the IC50 [2] of the same molecule?
The IC50 was 628 nM.

What about the IC50 [3] of the same molecule?
Its IC50 is 2060 nM.

What about the IC50 [4] of the same molecule?
Its IC50 is 464 nM.

And the IC50 [5]?
The IC50 was 260 nM.

And the IC50 [6]?
The IC50 was 490 nM.

Which IC50 ([1]; read-out: IC50 spike RBD/ACE2 binding, Omicron RBD sequence) does the source give for REGN10933 here?
The IC50 was over 700 nM.

And the IC50 ([2]; read-out: IC50 spike RBD/ACE2 binding, Lambda RBD sequence)?
Its IC50 is 0.8 nM.

And the IC50 ([4]; read-out: IC50 spike RBD/ACE2 binding, Delta RBD sequence)?
The IC50 was 1.4 nM.

What about the “fold weaker against the beta RBD” value [6] of the same molecule?
The value was ~ 70 fold.

And the IC50 ([6]; read-out: IC50 spike RBD/ACE2 binding, Beta RBD sequence)?
The IC50 was 90.9 nM.
